Experimental data published in article PMC8115619, “Generation of a chemical genetic model for JAK3” (Scientific Reports, 2021).
Entries after “also recorded” stand apart in the source; their conditions may differ.

Key:
[1] = tested on: IL-10 induced STAT3 phosphorylation in BMDMs; assay: IL-10 induced STAT3 phosphorylation in macrophages; type: cell-based, mouse; conditions: wild type BMDMs, inhibitor 2 h, 10 ng/ml IL-10
Experimental: (A) BMDMs were isolated from wild type mice. Cells were incubated with the indicated inhibitors in μM for 2 h before stimulation with 10 ng/ml IL-4 for 30 min. The levels of phosphorylated STAT6 were then determined by immunoblotting. (B) As (A) except cells were stimulated 10 ng/ml GM-CSF and the levels of phosphorylated STAT5 determined. (C) As (A) except cells were stimulated 10 ng/ml IL-10 and the levels of phosphorylated STAT3 determined. (D) As (A) except cells were stimulated 10 ng/ml IFNβ and the levels of phosphorylated STAT1 determined. For A–D, levels of ERK1/2 were determined as a loading control.
Bone marrow derived macrophages (BMDMs) were cultured as described. Briefly, bone marrow was flushed in PBS from the femurs and tibias of mice. Cells were cultured on bacterial grade plastic for 7 days at 37 °C, 5% CO2. Cells were then detached using Versene (Gibco), re-plated on tissue culture plastic in BMDM media (in DMEM supplemented with 10% heat inactivated FBS (Labtech), 2 mM L-glutamine, 100 U/ml penicillin G, 100 μg/ml streptomycin and 0.25 μg/ml amphotericin, 5 ng/ml M-CSF) and used within 48 h. Where indicated cells were stimulated with 10 ng/ml IL-4, 10 ng/ml GM-CSF, 10 ng/ml IL-10 or 10 ng/ml IFNβ. All cytokines were from PeproTech.
Cells were lysed directly into SDS sample buffer and aliquots run on 10% polyacrylamide gels using standard methods. Proteins were transferred onto nitrocellulose membranes, and specific proteins were detected by immunoblotting. Antibodies against tyrosine phosphorylated STATs were from Cell Signaling Technology (phospho-STAT1 #9167, phospho-STAT3 #9131, phospho-STAT5 #4322 and phospho-STAT6 #9361). […] Bands were detected using Clarity ECL reagents from BioRad and imaged on a Licor Odyssey Fc system. Quantification was carried out using Licor Image Studio software. After correction for the ERK1/2 levels to account for loading differences, percentage inhibition was calculated relative to the IL-4 stimulated condition. IC50 values were calculated using the same methods as for the in vitro IC50 values.

Aurora A = Aurora A (Homo sapiens, UniProt O14965); assay: Selectivity screen Aurora A; type: biochemical; conditions: 1 µM inhibitor, mean
DYRK2 = DYRK2 (Homo sapiens, UniProt Q92630); assay: Selectivity screen DYRK2; type: biochemical; conditions: 1 µM inhibitor, mean
Experimental: (§1) For the in vitro kinase assay, JAK3 (5–20 mU diluted in 50 mM Tris pH 7.5, 0.1 mM EGTA, 0.05% β-mercaptoethanol, 1 mg/ml BSA) was assayed against PDKtide ([…]) in a final volume of 25.5 µl containing 50 mM Tris pH 7.5, 0.1 mM EGTA, 0.05% β-mercaptoethanol, 100 µM substrate peptide, 10 mM magnesium acetate and 0.02 mM [33P-γ-ATP] (50–1000 cpm/pmole) and incubated for 30 min at room temperature. Assays were started by the addition of the ATP and stopped by addition of 5 µl of 0.5 M (3%) orthophosphoric acid and then harvested onto P81 Unifilter plates with a wash buffer of 50 mM orthophosphoric acid. To determine the Km for ATP, assays were run using 1, 5, 10, 20, 50, 100, 200, 400, 500 μM ATP and Km derived by non-linear regression fitting to the Michaelis–Menten equation v = Vmax[S]/(Km + [S]). IC50 values for inhibitors via non-linear regression using a parameter model: Y = Bottom + (Top–Bottom)/(1 + (IC50/X)^HillSlope). Non-linear regression was carried out in Prism (version 8). In vitro selectivity screen was carried out as described previously.

EF2K = EF2K (Homo sapiens, UniProt O00418); assay: Selectivity screen EF2K; type: biochemical; conditions: 1 µM inhibitor, mean
Experimental: as §1

EIF2AK3 = EIF2AK3 (Homo sapiens, UniProt Q9NZJ5); assay: Selectivity screen EIF2AK3; type: biochemical; conditions: 1 µM inhibitor, mean
Experimental: as §1

ERK1 = ERK1 (Homo sapiens, UniProt P27361); assay: Selectivity screen ERK1; type: biochemical; conditions: 1 µM inhibitor, mean
Experimental: as §1

IGF-1R = IGF-1R (Homo sapiens, UniProt P08069); assay: Selectivity screen IGF-1R; type: biochemical; conditions: 1 µM inhibitor, mean
Experimental: as §1

IRAK1 = IRAK1 (Homo sapiens, UniProt P51617); assay: Selectivity screen IRAK1; type: biochemical; conditions: 1 µM inhibitor, mean
Experimental: as §1

LKB1 = LKB1 (Homo sapiens, UniProt Q15831); assay: Selectivity screen LKB1; type: biochemical; conditions: 1 µM inhibitor, mean
Experimental: as §1

MAP4K3 = MAP4K3 (Homo sapiens, UniProt Q8IVH8); assay: Selectivity screen MAP4K3; type: biochemical; conditions: 1 µM inhibitor, mean
Experimental: as §1

MST4 = MST4 (Homo sapiens, UniProt Q9P289); assay: Selectivity screen MST4; type: biochemical; conditions: 1 µM inhibitor, mean
Experimental: as §1

NEK6 = NEK6 (Homo sapiens, UniProt Q9HC98); assay: Selectivity screen NEK6; type: biochemical; conditions: 1 µM inhibitor, mean
Experimental: as §1

OSR1 = OSR1 (Homo sapiens, UniProt O95747); assay: Selectivity screen OSR1; type: biochemical; conditions: 1 µM inhibitor, mean
Experimental: as §1

PAK2 = PAK2 (Homo sapiens, UniProt Q13177); assay: Selectivity screen PAK2; type: biochemical; conditions: 1 µM inhibitor, mean
Experimental: as §1

PAK5 = PAK5 (Homo sapiens, UniProt Q9P286); assay: Selectivity screen PAK5; type: biochemical; conditions: 1 µM inhibitor, mean
Experimental: as §1

PAK6 = PAK6 (Homo sapiens, UniProt Q9NQU5); assay: Selectivity screen PAK6; type: biochemical; conditions: 1 µM inhibitor, mean
Experimental: as §1

PKCa = PKCa (Homo sapiens, UniProt P17252); assay: Selectivity screen PKCa; type: biochemical; conditions: 1 µM inhibitor, mean
Experimental: as §1

RSK2 = RSK2 (Homo sapiens, UniProt P51812); assay: Selectivity screen RSK2; type: biochemical; conditions: 1 µM inhibitor, mean
Experimental: as §1

SGK1 = SGK1 (Homo sapiens, UniProt O00141); assay: Selectivity screen SGK1; type: biochemical; conditions: 1 µM inhibitor, mean
Experimental: as §1

SIK3 = SIK3 (Homo sapiens, UniProt Q9Y2K2); assay: Selectivity screen SIK3; type: biochemical; conditions: 1 µM inhibitor, mean
Experimental: as §1

TAK1 = TAK1 (Homo sapiens, UniProt O43318); assay: Selectivity screen TAK1; type: biochemical; conditions: 1 µM inhibitor, mean
Experimental: as §1

TBK1 = TBK1 (Homo sapiens, UniProt Q9UHD2); assay: Selectivity screen TBK1; type: biochemical; conditions: 1 µM inhibitor, mean
Experimental: as §1

TIE2 = TIE2 (Homo sapiens, UniProt Q02763); assay: Selectivity screen TIE2; type: biochemical; conditions: 1 µM inhibitor, mean
Experimental: as §1

LKB1, sequence (Q15831 whole entry): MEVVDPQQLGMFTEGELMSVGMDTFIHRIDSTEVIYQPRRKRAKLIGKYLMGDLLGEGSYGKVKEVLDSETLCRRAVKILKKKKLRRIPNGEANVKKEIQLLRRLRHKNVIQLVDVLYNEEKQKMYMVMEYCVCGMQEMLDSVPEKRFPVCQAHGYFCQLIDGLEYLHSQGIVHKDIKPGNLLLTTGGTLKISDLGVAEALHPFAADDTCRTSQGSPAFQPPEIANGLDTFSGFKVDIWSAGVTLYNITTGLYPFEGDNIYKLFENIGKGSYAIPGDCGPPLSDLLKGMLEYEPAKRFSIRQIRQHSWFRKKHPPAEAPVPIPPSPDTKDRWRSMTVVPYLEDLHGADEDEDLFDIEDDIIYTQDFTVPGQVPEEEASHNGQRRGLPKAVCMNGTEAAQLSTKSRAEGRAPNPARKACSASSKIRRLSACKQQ
LKB1, sequence (Q7RTN6 whole entry partner): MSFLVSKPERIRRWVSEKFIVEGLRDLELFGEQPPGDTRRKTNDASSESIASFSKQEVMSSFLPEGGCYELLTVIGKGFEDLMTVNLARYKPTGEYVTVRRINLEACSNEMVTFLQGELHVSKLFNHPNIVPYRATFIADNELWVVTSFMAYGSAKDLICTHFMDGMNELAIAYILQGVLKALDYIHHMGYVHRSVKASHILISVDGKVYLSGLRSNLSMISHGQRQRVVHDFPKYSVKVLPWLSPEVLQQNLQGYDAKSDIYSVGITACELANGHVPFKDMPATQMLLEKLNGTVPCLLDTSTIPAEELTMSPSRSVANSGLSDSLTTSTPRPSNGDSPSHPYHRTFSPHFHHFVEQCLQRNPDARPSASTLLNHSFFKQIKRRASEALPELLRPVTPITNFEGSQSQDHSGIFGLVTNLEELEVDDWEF
LKB1, sequence (Q9Y376 whole entry partner): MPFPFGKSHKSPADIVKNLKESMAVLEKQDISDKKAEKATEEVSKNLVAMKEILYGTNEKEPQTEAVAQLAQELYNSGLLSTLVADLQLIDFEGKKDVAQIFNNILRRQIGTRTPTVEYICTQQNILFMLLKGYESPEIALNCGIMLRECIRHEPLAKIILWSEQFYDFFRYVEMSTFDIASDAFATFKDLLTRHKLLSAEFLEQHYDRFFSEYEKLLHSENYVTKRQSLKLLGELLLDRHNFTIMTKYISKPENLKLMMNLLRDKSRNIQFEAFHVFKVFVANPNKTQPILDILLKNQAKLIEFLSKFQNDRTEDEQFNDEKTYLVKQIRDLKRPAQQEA
EF2K, sequence (O00418 whole entry): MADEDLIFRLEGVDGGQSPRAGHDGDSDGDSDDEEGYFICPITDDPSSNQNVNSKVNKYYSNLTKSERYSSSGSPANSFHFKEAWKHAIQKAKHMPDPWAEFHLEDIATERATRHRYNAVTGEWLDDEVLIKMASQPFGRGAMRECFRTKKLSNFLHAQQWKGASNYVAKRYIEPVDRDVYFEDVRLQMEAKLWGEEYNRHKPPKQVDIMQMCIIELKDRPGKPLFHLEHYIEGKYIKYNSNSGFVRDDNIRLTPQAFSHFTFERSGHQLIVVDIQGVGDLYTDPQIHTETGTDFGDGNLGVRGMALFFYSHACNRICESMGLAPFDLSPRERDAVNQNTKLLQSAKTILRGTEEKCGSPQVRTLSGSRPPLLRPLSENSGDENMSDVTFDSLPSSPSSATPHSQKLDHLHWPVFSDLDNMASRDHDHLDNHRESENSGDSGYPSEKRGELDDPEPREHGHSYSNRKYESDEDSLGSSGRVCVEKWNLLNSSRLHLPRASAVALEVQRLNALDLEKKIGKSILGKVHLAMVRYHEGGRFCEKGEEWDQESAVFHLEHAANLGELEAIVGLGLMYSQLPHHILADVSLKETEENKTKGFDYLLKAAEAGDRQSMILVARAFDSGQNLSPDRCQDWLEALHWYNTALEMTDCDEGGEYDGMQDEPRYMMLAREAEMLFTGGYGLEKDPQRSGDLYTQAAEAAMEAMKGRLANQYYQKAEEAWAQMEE
TBK1, sequence (Q9UHD2 whole entry): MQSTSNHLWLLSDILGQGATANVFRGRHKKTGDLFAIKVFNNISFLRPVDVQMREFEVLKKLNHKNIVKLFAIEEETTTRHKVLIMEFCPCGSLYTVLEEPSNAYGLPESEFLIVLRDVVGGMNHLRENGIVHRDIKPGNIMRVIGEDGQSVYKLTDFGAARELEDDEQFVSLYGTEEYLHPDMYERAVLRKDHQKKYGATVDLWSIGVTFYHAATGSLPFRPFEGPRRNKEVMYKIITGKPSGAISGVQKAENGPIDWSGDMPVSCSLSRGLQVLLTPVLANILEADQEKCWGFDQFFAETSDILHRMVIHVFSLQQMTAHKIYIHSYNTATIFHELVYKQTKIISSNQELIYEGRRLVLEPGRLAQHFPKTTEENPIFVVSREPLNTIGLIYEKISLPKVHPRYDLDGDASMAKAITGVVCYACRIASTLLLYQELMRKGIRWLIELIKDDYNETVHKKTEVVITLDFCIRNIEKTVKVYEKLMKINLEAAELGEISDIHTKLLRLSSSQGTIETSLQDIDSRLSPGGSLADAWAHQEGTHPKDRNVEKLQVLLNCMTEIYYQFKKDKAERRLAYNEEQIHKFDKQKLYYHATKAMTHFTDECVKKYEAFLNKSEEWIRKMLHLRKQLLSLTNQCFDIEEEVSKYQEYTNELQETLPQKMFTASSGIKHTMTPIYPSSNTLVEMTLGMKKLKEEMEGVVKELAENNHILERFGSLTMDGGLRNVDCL
ERK1, sequence (P27361 whole entry): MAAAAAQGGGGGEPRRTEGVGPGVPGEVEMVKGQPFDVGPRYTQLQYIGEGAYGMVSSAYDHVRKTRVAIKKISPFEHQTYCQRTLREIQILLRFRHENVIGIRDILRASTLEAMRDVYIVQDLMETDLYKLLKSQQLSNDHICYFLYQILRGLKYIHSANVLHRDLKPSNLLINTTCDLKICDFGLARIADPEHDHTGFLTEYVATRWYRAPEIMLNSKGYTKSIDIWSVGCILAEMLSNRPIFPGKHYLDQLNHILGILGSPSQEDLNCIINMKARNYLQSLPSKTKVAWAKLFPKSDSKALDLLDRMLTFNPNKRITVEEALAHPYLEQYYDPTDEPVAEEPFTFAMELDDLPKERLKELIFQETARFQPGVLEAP
IRAK1, sequence (P51617 whole entry): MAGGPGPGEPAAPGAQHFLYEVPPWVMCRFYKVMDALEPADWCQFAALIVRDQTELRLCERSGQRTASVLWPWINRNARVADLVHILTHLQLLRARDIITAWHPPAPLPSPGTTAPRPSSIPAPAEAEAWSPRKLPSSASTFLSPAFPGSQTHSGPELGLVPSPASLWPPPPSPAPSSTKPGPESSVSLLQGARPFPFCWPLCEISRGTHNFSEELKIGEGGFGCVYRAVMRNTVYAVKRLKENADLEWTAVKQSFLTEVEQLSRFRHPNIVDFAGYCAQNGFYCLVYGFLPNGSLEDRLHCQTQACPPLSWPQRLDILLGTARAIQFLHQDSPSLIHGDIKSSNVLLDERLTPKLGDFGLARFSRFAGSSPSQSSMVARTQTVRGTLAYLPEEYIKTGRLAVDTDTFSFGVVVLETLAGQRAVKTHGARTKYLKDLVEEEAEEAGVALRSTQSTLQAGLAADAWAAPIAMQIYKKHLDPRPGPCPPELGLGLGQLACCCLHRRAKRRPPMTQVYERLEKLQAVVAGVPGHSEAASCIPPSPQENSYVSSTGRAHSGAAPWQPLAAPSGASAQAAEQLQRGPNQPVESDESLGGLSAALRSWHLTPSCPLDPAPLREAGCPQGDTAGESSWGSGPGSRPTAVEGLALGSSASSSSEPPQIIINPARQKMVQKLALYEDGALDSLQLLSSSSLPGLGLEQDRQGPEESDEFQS
DYRK2, sequence (Q92630 whole entry): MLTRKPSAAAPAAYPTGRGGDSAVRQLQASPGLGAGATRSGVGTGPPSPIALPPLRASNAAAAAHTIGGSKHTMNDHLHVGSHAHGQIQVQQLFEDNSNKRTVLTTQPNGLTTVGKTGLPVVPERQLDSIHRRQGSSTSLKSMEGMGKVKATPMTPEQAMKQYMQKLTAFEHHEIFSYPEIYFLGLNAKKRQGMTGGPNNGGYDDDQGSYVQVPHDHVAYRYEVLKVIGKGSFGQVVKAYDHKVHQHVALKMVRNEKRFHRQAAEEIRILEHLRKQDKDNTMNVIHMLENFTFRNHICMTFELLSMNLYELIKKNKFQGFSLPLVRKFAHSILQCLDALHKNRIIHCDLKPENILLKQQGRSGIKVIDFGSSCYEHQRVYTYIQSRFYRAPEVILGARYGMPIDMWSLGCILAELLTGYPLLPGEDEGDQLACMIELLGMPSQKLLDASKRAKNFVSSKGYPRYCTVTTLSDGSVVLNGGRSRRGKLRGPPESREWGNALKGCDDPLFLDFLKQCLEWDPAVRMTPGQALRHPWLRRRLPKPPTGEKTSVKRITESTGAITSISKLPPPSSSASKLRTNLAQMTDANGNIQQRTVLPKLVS
PAK2, sequence (Q13177 whole entry): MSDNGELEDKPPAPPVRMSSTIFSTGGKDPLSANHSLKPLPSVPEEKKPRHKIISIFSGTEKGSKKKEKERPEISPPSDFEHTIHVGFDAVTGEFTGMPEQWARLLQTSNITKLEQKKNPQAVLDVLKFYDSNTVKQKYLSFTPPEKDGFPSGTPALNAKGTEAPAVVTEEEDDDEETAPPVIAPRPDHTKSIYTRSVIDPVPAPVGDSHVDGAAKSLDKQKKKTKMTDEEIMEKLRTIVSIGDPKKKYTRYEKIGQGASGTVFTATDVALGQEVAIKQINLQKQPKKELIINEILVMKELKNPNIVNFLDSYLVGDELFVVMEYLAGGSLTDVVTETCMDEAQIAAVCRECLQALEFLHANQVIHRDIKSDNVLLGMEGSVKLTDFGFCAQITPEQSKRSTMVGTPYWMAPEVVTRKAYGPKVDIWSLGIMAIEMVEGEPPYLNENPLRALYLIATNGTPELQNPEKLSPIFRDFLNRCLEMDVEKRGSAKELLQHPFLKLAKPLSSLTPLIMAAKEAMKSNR

Structure (SMILES)	effect on IL-10 signaling (IL-10 induced STAT3 phosphorylation) [1]	activity remaining in the presence of the inhibitor: Aurora A (Aurora A)	activity remaining in the presence of the inhibitor: DYRK2 (DYRK2)	activity remaining in the presence of the inhibitor: EF2K (EF2K)	activity remaining in the presence of the inhibitor: EIF2AK3 (EIF2AK3)	activity remaining in the presence of the inhibitor: ERK1 (ERK1)	activity remaining in the presence of the inhibitor: IGF-1R (IGF-1R)	activity remaining in the presence of the inhibitor: IRAK1 (IRAK1)	activity remaining in the presence of the inhibitor: LKB1 (LKB1)	activity remaining in the presence of the inhibitor: MAP4K3 (MAP4K3)	activity remaining in the presence of the inhibitor: MST4 (MST4)	activity remaining in the presence of the inhibitor: NEK6 (NEK6)	activity remaining in the presence of the inhibitor: OSR1 (OSR1)	activity remaining in the presence of the inhibitor: PAK2 (PAK2)	activity remaining in the presence of the inhibitor: PAK5 (PAK5)	activity remaining in the presence of the inhibitor: PAK6 (PAK6)	activity remaining in the presence of the inhibitor: PKCa (PKCa)	activity remaining in the presence of the inhibitor: RSK2 (RSK2)	activity remaining in the presence of the inhibitor: SGK1 (SGK1)	activity remaining in the presence of the inhibitor: SIK3 (SIK3)	also measured
C=CC(=O)N1C[C@H](Nc2ncnc3[nH]ccc23)CC[C@@H]1C [PF-06651600, 1-((2S,5R)-5-((7H-Pyrrolo[2,3-d]pyrimidin-4-yl)amino)-2-methylpiperidin-1-yl)prop-2-en-1-one, reference compound]	did not block	–	–	–	–	–	–	–	–	–	–	–	–	–	–	–	–	–	–	–	effect on IL-10 signaling (IL-10 induced STAT3 phosphorylation) ([1]; listed as PF-0665160): no effect
C=CC(=O)Nc1cccc(CNc2nc(Nc3ccc(N4CCN(C)CC4)cc3OC)ncc2Cl)c1 [TL6-144]	–	94	92	95	98	94	5	81	91	83	107	97	47	81	94	77	81	73	100	89	activity remaining in the presence of the inhibitor: TAK1 (TAK1): 77; activity remaining in the presence of the inhibitor: TBK1 (TBK1): 78; activity remaining in the presence of the inhibitor: TIE2 (TIE2): 87
C=CC(=O)Nc1cccc(CNc2nc(Nc3ccc(N4CCOCC4)cc3)ncc2Cl)c1 [TL8-52]	no effect; also recorded: did not block	13	87	105	90	94	24	54	132	55	96	103	98	75	90	99	91	53	89	59	activity remaining in the presence of the inhibitor: TAK1 (TAK1): 39; activity remaining in the presence of the inhibitor: TBK1 (TBK1): 11; activity remaining in the presence of the inhibitor: TIE2 (TIE2): 116
